# Laboratory results taken from ChEMBL document CHEMBL1933004, “Novel (S)-1,2,3,4-tetrahydroisoquinoline-3-carboxylic acids: peroxisome proliferator-activated receptor γ selective agonists with protein-tyrosine phosphatase 1B inhibition” (Bioorg Med Chem, 2012).
# Tests used:
# [1] = molecular target: T1, Peroxisome proliferator-activated receptor gamma (Homo sapiens, UniProt P37231); assay: Transactivation of human full length PPARgamma expressed in COS1 cells co-transfected with RXRalpha after 24 hrs by luciferase reporter gene assay; assay type: cell-based, COS-1
# T1 sequence (P37231 whole entry): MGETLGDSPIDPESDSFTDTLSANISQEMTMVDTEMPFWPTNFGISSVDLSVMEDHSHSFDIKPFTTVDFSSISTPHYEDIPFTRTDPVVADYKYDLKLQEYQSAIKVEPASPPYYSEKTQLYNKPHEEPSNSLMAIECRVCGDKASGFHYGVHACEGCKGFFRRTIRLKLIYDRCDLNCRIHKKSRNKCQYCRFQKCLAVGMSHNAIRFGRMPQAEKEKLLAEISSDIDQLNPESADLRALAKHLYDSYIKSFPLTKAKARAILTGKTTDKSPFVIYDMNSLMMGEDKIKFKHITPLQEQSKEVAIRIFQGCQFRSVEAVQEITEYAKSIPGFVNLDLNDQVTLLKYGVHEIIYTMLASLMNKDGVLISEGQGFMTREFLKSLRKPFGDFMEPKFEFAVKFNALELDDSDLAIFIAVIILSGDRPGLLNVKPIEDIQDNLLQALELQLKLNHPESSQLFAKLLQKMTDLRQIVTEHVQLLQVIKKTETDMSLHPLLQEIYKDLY
# [2] = molecular target: T2, Peroxisome proliferator-activated receptor gamma (Homo sapiens) (UniProt P37231); assay: Transactivation of human full length PPARgamma expressed in COS1 cells co-transfected with RXRalpha after 24 hrs by luciferase reporter gene assay relative to farglitazar; assay type: cell-based; conditions: COS-1
# T2 sequence (whole entry): T1 sequence (P37231 whole entry)
# [3] = molecular target: T3, Peroxisome proliferator-activated receptor alpha (Homo sapiens) (UniProt Q07869); assay: Transactivation of human full length PPARalpha expressed in COS1 cells co-transfected with RXRalpha after 24 hrs by luciferase reporter gene assay relative to WY14643; assay type: cell-based; conditions: COS-1
# T3 sequence (whole entry): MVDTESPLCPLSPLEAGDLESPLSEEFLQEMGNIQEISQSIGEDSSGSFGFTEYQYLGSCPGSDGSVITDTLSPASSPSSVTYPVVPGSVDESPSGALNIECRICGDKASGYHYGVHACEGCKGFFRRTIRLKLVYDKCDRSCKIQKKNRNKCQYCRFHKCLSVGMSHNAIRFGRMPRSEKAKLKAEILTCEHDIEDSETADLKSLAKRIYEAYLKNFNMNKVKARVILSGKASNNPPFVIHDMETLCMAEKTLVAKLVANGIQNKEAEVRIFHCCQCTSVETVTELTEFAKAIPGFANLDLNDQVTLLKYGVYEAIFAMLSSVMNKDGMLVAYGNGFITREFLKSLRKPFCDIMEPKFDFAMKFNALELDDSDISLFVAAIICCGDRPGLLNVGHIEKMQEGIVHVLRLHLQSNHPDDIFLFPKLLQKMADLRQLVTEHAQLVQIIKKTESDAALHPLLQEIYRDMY
# [4] = molecular target: T4, Tyrosine-protein phosphatase non-receptor type 1 (Homo sapiens, UniProt P18031); assay: Inhibition of PTB1B using pNPP as substrate after 30 mins
# T4 sequence (P18031 whole entry): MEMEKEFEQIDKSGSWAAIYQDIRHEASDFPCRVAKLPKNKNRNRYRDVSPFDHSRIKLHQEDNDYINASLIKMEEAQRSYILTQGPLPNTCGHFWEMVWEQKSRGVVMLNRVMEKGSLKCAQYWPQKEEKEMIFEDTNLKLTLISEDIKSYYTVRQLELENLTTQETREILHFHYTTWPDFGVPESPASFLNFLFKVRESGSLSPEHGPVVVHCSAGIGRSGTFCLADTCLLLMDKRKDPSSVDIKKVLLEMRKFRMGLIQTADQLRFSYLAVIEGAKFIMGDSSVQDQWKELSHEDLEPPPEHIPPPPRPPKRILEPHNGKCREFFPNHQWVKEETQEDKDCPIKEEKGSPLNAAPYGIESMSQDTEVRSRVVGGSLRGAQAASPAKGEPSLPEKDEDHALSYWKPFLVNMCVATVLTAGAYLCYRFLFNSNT
# Mus musculus = assay: Hypoglycemic activity in diabetic KK-Ay mouse model assessed as decrease in glucose level at 10 mg/kg, po qd for 4 days relative to untreated control; assay type: functional; design: scale not given: the % may be the effect or the level left
# [5] = molecular target: T5, Peroxisome proliferator-activated receptor alpha (Homo sapiens, UniProt Q07869); assay: Transactivation of human full length PPARalpha expressed in COS1 cells co-transfected with RXRalpha after 24 hrs by luciferase reporter gene assay; assay type: cell-based, COS-1
# T5 sequence (Q07869 whole entry): T3 sequence (whole entry)
# [6] = molecular target: T2, Peroxisome proliferator-activated receptor gamma (Homo sapiens); assay: Ratio of rosiglitazone EC50 to compound EC50 for human full length PPARgamma
EC50 [1] [nM],Emax [2] [%],Emax [3] [%],IC50 [4] [nM],EC50 [5] [nM],Ratio EC50 [6],Compound,Activity (Mus musculus) [%]
20,94,< 50,940,–,–,CC(C)(C)N.CCCCCC(=O)N1Cc2cc(OCCc3nc(/C=C/CCC(C)C)oc3C)ccc2C[C@H]1C(=O)O,30
160,92,< 50,1950,–,–,C/C=C/C=C/C(=O)N1Cc2cc(OCCc3nc(/C=C/CC(C)(C)C)oc3C)ccc2C[C@H]1C(=O)O.CC(C)(C)N,39
40,105,< 50,1690,–,–,C=CCCC(=O)N1Cc2cc(OCCc3nc(/C=C/CCC(C)C)oc3C)ccc2C[C@H]1C(=O)O.CC(C)(C)N,45
70,86,< 50,3350,–,–,CC(C)(C)N.CCOCCC(=O)N1Cc2cc(OCCc3nc(/C=C/CCC(C)C)oc3C)ccc2C[C@H]1C(=O)O,-13
160,103,81,2000,240,–,C/C=C/C=C/C(=O)N1Cc2cc(OCCc3nc(/C=C/CC(C)C)oc3C)ccc2C[C@H]1C(=O)O.CC(C)(C)N,58
–,61,< 50,3200,–,–,CC(C)(C)N.Cc1oc(/C=C/CCC(C)C)nc1CCOc1ccc2c(c1)CN(C(=O)/C=C/C=C/CO)[C@H](C(=O)O)C2,14
310,82,< 50,1410,–,–,C/C=C/C=C/C(=O)N1Cc2cc(OCCc3nc(/C=C/C(C)CCC)oc3C)ccc2C[C@H]1C(=O)O.CC(C)(C)N (stereo partly drawn),71
240,104,< 50,6200,–,–,CC(C)(C)N.CCC(O)/C=C/C(=O)N1Cc2cc(OCCc3nc(/C=C/CCC(C)C)oc3C)ccc2C[C@H]1C(=O)O (stereo partly drawn),19
670,104,62,2200,300,–,C/C=C/C=C/C(=O)N1Cc2cc(OCCc3nc(/C=C/C(C)C)oc3C)ccc2C[C@H]1C(=O)O.CC(C)(C)N,38
20,119,< 50,1020,–,4,C/C=C/C=C/C(=O)N1Cc2cc(OCCc3nc(/C(C)=C/CCC(C)C)oc3C)ccc2C[C@H]1C(=O)O.CC(C)(C)N,56
110,89,< 50,1150,–,–,C/C=C/C=C/C(=O)N1Cc2cc(OCCc3nc(CCCCC(C)C)oc3C)ccc2C[C@H]1C(=O)O.CC(C)(C)N,17
20,101,< 50,2550,–,–,CC(C)(C)N.CCO/C=C/C(=O)N1Cc2cc(OCCc3nc(/C=C/CCC(C)C)oc3C)ccc2C[C@H]1C(=O)O,33
30,85,64,950,100,–,CC(C)(C)N.CC(C)=C/C=C/C(=O)N1Cc2cc(OCCc3nc(/C=C/CCC(C)C)oc3C)ccc2C[C@H]1C(=O)O,44
760,90,66,1300,–,–,C/C=C/C=C/C(=O)N1Cc2cc(OCCc3nc(/C=C/C(CC)CC)oc3C)ccc2C[C@H]1C(=O)O.CC(C)(C)N,18
350,91,< 50,5600,–,–,C/C=C/C=C/C(=O)N1Cc2cc(OCCc3nc(/C(=C/C)CC)oc3C)ccc2C[C@H]1C(=O)O.CC(C)(C)N,47
760,77,< 50,1200,–,–,C/C=C/C=C/C(=O)N1Cc2cc(OCCc3nc(/C=C/C(C)(C)CC)oc3C)ccc2C[C@H]1C(=O)O.CC(C)(C)N,16
540,97,< 50,2250,–,–,C/C=C/C=C/C(=O)N1Cc2cc(OCCc3nc(/C=C/C(C)(C)C)oc3C)ccc2C[C@H]1C(=O)O.CC(C)(C)N,23
70,84,< 50,1050,–,–,CC(C)(C)N.Cc1oc(/C=C/CCC(C)C)nc1CCOc1ccc2c(c1)CN(C(=O)/C=C/C1CC1)[C@H](C(=O)O)C2,27
50,98,< 50,2030,–,–,C/C=C/C=C(\C)C(=O)N1Cc2cc(OCCc3nc(/C=C/CCC(C)C)oc3C)ccc2C[C@H]1C(=O)O.CC(C)(C)N,21
40,99,< 50,1050,–,–,CC(C)(C)N.Cc1oc(/C=C/CCC(C)C)nc1CCOc1ccc2c(c1)CN(C(=O)/C=C/c1cccs1)[C@H](C(=O)O)C2,45
30,96,< 50,1180,–,–,CC(C)(C)N.CCC/C=C/C(=O)N1Cc2cc(OCCc3nc(/C=C/CCC(C)C)oc3C)ccc2C[C@H]1C(=O)O,50
70,102,< 50,570,–,–,CC(C)(C)N.Cc1oc(/C=C/CCC(C)C)nc1CCOc1ccc2c(c1)CN(C(=O)/C=C/c1ccco1)[C@H](C(=O)O)C2,29
90,108,< 50,3800,–,–,CC(C)(C)N.CCOC/C=C/C(=O)N1Cc2cc(OCCc3nc(/C=C/CCC(C)C)oc3C)ccc2C[C@H]1C(=O)O,3
50,106,< 50,1430,–,–,C=CCCCC(=O)N1Cc2cc(OCCc3nc(/C=C/CCC(C)C)oc3C)ccc2C[C@H]1C(=O)O.CC(C)(C)N,22
120,96,< 50,4400,–,–,C/C=C/C=C/C(=O)N1Cc2cc(OCCc3nc(/C(C)=C/CC)oc3C)ccc2C[C@H]1C(=O)O.CC(C)(C)N,40
